From ChEMBL document CHEMBL5370567 (Bioorg Med Chem, 2023) come the findings set out here.

The target in the assay is T1, G-protein coupled bile acid receptor 1 (Homo sapiens, UniProt Q8TDU6).
T1 sequence (Q8TDU6 whole entry): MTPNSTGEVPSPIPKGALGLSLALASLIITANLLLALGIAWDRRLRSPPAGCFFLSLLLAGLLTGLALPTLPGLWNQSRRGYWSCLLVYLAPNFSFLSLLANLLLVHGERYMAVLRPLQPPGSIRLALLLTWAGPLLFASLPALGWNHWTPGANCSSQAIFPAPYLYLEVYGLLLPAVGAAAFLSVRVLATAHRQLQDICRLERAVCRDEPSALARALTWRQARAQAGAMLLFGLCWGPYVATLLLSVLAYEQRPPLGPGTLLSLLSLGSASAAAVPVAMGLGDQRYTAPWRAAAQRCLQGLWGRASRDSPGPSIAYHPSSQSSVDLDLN
As to the kind of experiment: Positive allosteric modulator activity at human TGR5 expressed in HEK293T cells assessed as increase in cAMP accumulation incubated for 1 hr at 37 degC and further incubated for 1 hr at room temperature by glosensor cAMP accumulation assay. It is filed as functional, cell-based. In general terms: Changes in cAMP serve as a functional read-out for many G protein-coupled receptors.
Take `CO[C@@H]1C[C@@H]2C[C@H](O)CC[C@]2(C)[C@H]2C[C@H](O)[C@]3(C)[C@@H]([C@H](C)CCC(=O)Oc4cccc5ccccc45)CC[C@H]3[C@H]12`: the EC50 – broadly, the concentration at which the effect is half-maximal – was 48.5 µM.
Regarding `CO[C@@H]1C[C@@H]2C[C@H](O)CC[C@]2(C)[C@H]2CC(=O)[C@]3(C)[C@@H]([C@H](C)CCC(=O)Oc4ccc5ccccc5c4)CC[C@H]3[C@H]12`, the EC50 is over 100 µM.
Take `CO[C@@H]1C[C@@H]2C[C@H](O)CC[C@]2(C)[C@H]2C[C@H](O)[C@]3(C)[C@@H]([C@H](C)CCC(=O)Oc4ccc5ccccc5c4)CC[C@H]3[C@H]12`: the 50% effective concentration (EC50) was over 100 µM.
The result for `CO[C@@H]1C[C@@H]2C[C@H](O)CC[C@]2(C)[C@H]2CC(=O)[C@]3(C)[C@@H]([C@H](C)CCC(=O)OCc4ccccc4)CC[C@H]3[C@H]12` reads 76.5 µM; that for `COC(=O)CC[C@@H](C)[C@H]1CC[C@H]2[C@@H]3[C@H](OC)C[C@@H]4C[C@H](O)CC[C@]4(C)[C@H]3C[C@H](O)[C@]12C`, 8 µM.
As to `CO[C@@H]1C[C@@H]2C[C@H](O)CC[C@]2(C)[C@H]2CC(=O)[C@]3(C)[C@@H]([C@H](C)CCC(=O)OC4CCCC4)CC[C@H]3[C@H]12`, the EC50 is 23 µM.
With `CO[C@@H]1C[C@@H]2C[C@H](O)CC[C@]2(C)[C@H]2CC(=O)[C@]3(C)[C@@H]([C@H](C)CCC(=O)OCC4CC4)CC[C@H]3[C@H]12`, the EC50 was 9.5 µM.
With `CO[C@@H]1C[C@@H]2C[C@H](O)CC[C@]2(C)[C@H]2CC(=O)[C@]3(C)[C@@H]([C@H](C)CCC(=O)Oc4ccccc4)CC[C@H]3[C@H]12`, the EC50 was 5.5 µM.
The result for `CO[C@@H]1C[C@@H]2C[C@H](O)CC[C@]2(C)[C@H]2C[C@H](O)[C@]3(C)[C@@H]([C@H](C)CCC(=O)Oc4ccccc4)CC[C@H]3[C@H]12` reads 18.5 µM.
Consider `CO[C@@H]1C[C@@H]2C[C@H](O)CC[C@]2(C)[C@H]2CC(=O)[C@]3(C)[C@@H]([C@H](C)CCC(=O)OCC4CCCC4)CC[C@H]3[C@H]12`, for which the 50% effective concentration (EC50) is 62 µM.
Then `CO[C@@H]1C[C@@H]2C[C@H](O)CC[C@]2(C)[C@H]2C[C@H](O)[C@]3(C)[C@@H]([C@H](C)CCC(=O)OC4CC4)CC[C@H]3[C@H]12`, with 8.9 µM; and `CCOC(=O)CC[C@@H](C)[C@H]1CC[C@H]2[C@@H]3[C@H](OC)C[C@@H]4C[C@H](O)CC[C@]4(C)[C@H]3C[C@H](O)[C@]12C`, with 19.8 µM; and `CCOC(=O)CC[C@@H](C)[C@H]1CC[C@H]2[C@@H]3[C@H](OC)C[C@@H]4C[C@H](O)CC[C@]4(C)[C@H]3CC(=O)[C@]12C`, with 31.6 µM.
For the compound `CO[C@@H]1C[C@@H]2C[C@H](O)CC[C@]2(C)[C@H]2CC(=O)[C@]3(C)[C@@H]([C@H](C)CCC(=O)OC(C)C)CC[C@H]3[C@H]12`, the EC50 was 12 µM.
Then `CO[C@@H]1C[C@@H]2C[C@H](O)CC[C@]2(C)[C@H]2C[C@H](O)[C@]3(C)[C@@H]([C@H](C)CCC(=O)OCC4CC4)CC[C@H]3[C@H]12`, with 14.1 µM; and `CO[C@@H]1C[C@@H]2C[C@H](O)CC[C@]2(C)[C@H]2CC(=O)[C@]3(C)[C@@H]([C@H](C)CCC(=O)Oc4cccc5ccccc45)CC[C@H]3[C@H]12`, with 38 µM; and `CO[C@@H]1C[C@@H]2C[C@H](O)CC[C@]2(C)[C@H]2C[C@H](O)[C@]3(C)[C@@H]([C@H](C)CCC(=O)OCC4CCCC4)CC[C@H]3[C@H]12`, with 25.8 µM.
Then `CO[C@@H]1C[C@@H]2C[C@H](O)CC[C@]2(C)[C@H]2C[C@H](O)[C@]3(C)[C@@H]([C@H](C)CCC(=O)OC(C)C)CC[C@H]3[C@H]12`, with 9.8 µM; and `COC(=O)CC[C@@H](C)[C@H]1CC[C@H]2[C@@H]3[C@H](OC)C[C@@H]4C[C@H](O)CC[C@]4(C)[C@H]3CC(=O)[C@]12C`, with 5.3 µM.
The result for `CO[C@@H]1C[C@@H]2C[C@H](O)CC[C@]2(C)[C@H]2CC(=O)[C@]3(C)[C@@H]([C@H](C)CCC(=O)OC4CC4)CC[C@H]3[C@H]12` reads 6.3 µM; that for `CO[C@@H]1C[C@@H]2C[C@H](O)CC[C@]2(C)[C@H]2C[C@H](O)[C@]3(C)[C@@H]([C@H](C)CCC(=O)OC4CCCC4)CC[C@H]3[C@H]12`, 21.8 µM; that for `CO[C@@H]1C[C@@H]2C[C@H](O)CC[C@]2(C)[C@H]2C[C@H](O)[C@]3(C)[C@@H]([C@H](C)CCC(=O)OCc4ccccc4)CC[C@H]3[C@H]12`, 92.5 µM.
